Read-outs that look alike come from different tables or passages of the source.
Columns and labels:
[1] = test system: Echinochloa crus; conditions: for plant mortality, measured value: Echinochloa crus; for Echinochloa crus mortality, measured value: 20 days after treatment
From the text: (§1) X is % damage by uracil compound (a) of formula 1 at the rate of application of p kg/ha; Y is % damage by conventional herbicidal compound (b) at the rate of application of q kg/ha; and E is the expected damage caused by compounds (a) and (b) at a rate of application of p and q kg/ha.
(§2) The expected activity for a given combination of two herbicides can be calculated using equation 1 above.

[2] = test system: Digitaria sanguinalis; conditions: for plant mortality, measured value: Digitaria sanguinalis; for Digitaria sanguinalis mortality, measured value: 20 days after treatment
From the text: as §1, §2

[3] = test system: Abutilon theophrasti; assay: whole plant or invertebrate
From the text: as §1, §2

[4] = test system: Aeschynomene indica; assay: whole plant or invertebrate
From the text: as §1, §2

[5] = test system: Xanthium spinosum; assay: whole plant or invertebrate
From the text: as §1, §2

[6] = read-out: plant mortality, measured value, 125 g/ha
[7] = read-out: plant mortality, measured value, 250 g/ha
[8] = read-out: plant mortality, measured value, 500 g/ha
[9] = read-out: plant mortality, measured value, 175 g/ha
[10] = read-out: plant mortality, measured value, 350 g/ha
[11] = read-out: plant mortality, measured value, 700 g/ha
[12] = read-out: Data (measured value) Abutilon theophrasti, 50 g/ha
[13] = read-out: Data (measured value) Abutilon theophrasti, 100 g/ha
[14] = read-out: plant mortality, measured value, 25 g/ha
[15] = read-out: plant mortality, measured value, 50 g/ha
[16] = read-out: plant mortality, measured value, 100 g/ha
[17] = read-out: Data (measured value) Aeschynomene indica, 50 g/ha
[18] = read-out: Data (measured value) Aeschynomene indica, 100 g/ha
[19] = read-out: Data (measured value) Xanthium spinosum, 50 g/ha
[20] = read-out: Data (measured value) Xanthium spinosum, 100 g/ha
[21] = 480 h, read-out: Abutilon theophrasti mortality, measured value
[22] = 480 h, read-out: Aeschynomene indica mortality, measured value
[23] = 480 h, read-out: Xanthium spinosum mortality, measured value

CC(C)N1C(=O)c2ccccc2NS1(=O)=O [Bentazone]
plant mortality, measured value ([1]; 125 g/ha): 0
plant mortality, measured value ([1]; 250 g/ha): 0
plant mortality, measured value ([1]; 500 g/ha): 0
plant mortality, measured value ([2]; 125 g/ha): 0
plant mortality, measured value ([2]; 250 g/ha): 0
plant mortality, measured value ([2]; 500 g/ha): 0
pest or weed control at 125 g/ha [3, 6]: 9%
pest or weed control at 250 g/ha [3, 7]: 22%
pest or weed control at 500 g/ha [3, 8]: 49%
pest or weed control at 125 g/ha [4, 6]: 10%
pest or weed control at 250 g/ha [4, 7]: 22%
pest or weed control at 500 g/ha [4, 8]: 52%
pest or weed control at 125 g/ha [5, 6]: 8%
pest or weed control at 250 g/ha [5, 7]: 18%
pest or weed control at 500 g/ha [5, 8]: 45%

COc1cc(OC)nc(Oc2cccc(Oc3nc(OC)cc(OC)n3)c2C(=O)O)n1 [Bispyribac-sodium]
Data (measured value) Echinochloa crus ([1]; 15 g/ha): 23
Data (measured value) Echinochloa crus ([1]; 30 g/ha): 45
Data (measured value) Digitaria sanguinalis ([2]; 15 g/ha): 20
Data (measured value) Digitaria sanguinalis ([2]; 30 g/ha): 47
pest or weed control at 15 g/ha ([3]; read-out: Data (measured value) Abutilon theophrasti, 15 g/ha): 31%
pest or weed control at 30 g/ha ([3]; read-out: Data (measured value) Abutilon theophrasti, 30 g/ha): 62%
pest or weed control at 15 g/ha ([4]; read-out: Data (measured value) Aeschynomene indica, 15 g/ha): 23%
pest or weed control at 30 g/ha ([4]; read-out: Data (measured value) Aeschynomene indica, 30 g/ha): 49%
pest or weed control at 15 g/ha ([5]; read-out: Data (measured value) Xanthium spinosum, 15 g/ha): 27%
pest or weed control at 30 g/ha ([5]; read-out: Data (measured value) Xanthium spinosum, 30 g/ha): 58%

Nc1cnn(-c2ccccc2)c(=O)c1Cl [Chloridazon]
plant mortality, measured value ([1]; 175 g/ha): 13
plant mortality, measured value ([1]; 350 g/ha): 27
plant mortality, measured value ([1]; 700 g/ha): 54
plant mortality, measured value ([2]; 175 g/ha): 14
plant mortality, measured value ([2]; 350 g/ha): 28
plant mortality, measured value ([2]; 700 g/ha): 63
pest or weed control at 175 g/ha [3, 9]: 14%
pest or weed control at 350 g/ha [3, 10]: 30%
pest or weed control at 700 g/ha [3, 11]: 64%
pest or weed control at 175 g/ha [4, 9]: 11%
pest or weed control at 350 g/ha [4, 10]: 29%
pest or weed control at 700 g/ha [4, 11]: 57%
pest or weed control at 175 g/ha [5, 9]: 7%
pest or weed control at 350 g/ha [5, 10]: 22%
pest or weed control at 700 g/ha [5, 11]: 46%

CCSC(C)CC1CC(=O)C(/C(CC)=N/OC/C=C/Cl)=C(O)C1 (stereo not shown) [Clethodim]
Data (measured value) Echinochloa crus ([1]; 25 g/ha): 11
plant mortality, measured value ([1]; 25 g/ha): 11
Data (measured value) Echinochloa crus ([1]; 50 g/ha): 31
plant mortality, measured value ([1]; 50 g/ha): 31
Data (measured value) Echinochloa crus ([1]; 100 g/ha): 65
plant mortality, measured value ([1]; 100 g/ha): 65
Data (measured value) Digitaria sanguinalis ([2]; 25 g/ha): 6
plant mortality, measured value ([2]; 25 g/ha): 6
Data (measured value) Digitaria sanguinalis ([2]; 50 g/ha): 19
plant mortality, measured value ([2]; 50 g/ha): 19
Data (measured value) Digitaria sanguinalis ([2]; 100 g/ha): 45
plant mortality, measured value ([2]; 100 g/ha): 45
pest or weed control at 25 g/ha ([3]; read-out: Data (measured value) Abutilon theophrasti, 25 g/ha): 0%
pest or weed control at 50 g/ha [3, 12]: 0%
pest or weed control at 100 g/ha [3, 13]: 0%
pest or weed control at 25 g/ha [3, 14]: 0%
pest or weed control at 50 g/ha [3, 15]: 0%
pest or weed control at 100 g/ha [3, 16]: 0%
pest or weed control at 25 g/ha ([4]; read-out: Data (measured value) Aeschynomene indica, 25 g/ha): 0%
pest or weed control at 50 g/ha [4, 17]: 0%
pest or weed control at 100 g/ha [4, 18]: 0%
pest or weed control at 25 g/ha [4, 14]: 0%
pest or weed control at 50 g/ha [4, 15]: 0%
pest or weed control at 100 g/ha [4, 16]: 0%
pest or weed control at 25 g/ha ([5]; read-out: Data (measured value) Xanthium spinosum, 25 g/ha): 0%
pest or weed control at 50 g/ha [5, 19]: 0%
pest or weed control at 100 g/ha [5, 20]: 0%
pest or weed control at 25 g/ha [5, 14]: 0%
pest or weed control at 50 g/ha [5, 15]: 0%
pest or weed control at 100 g/ha [5, 16]: 0%

COC(=O)CCNC(=O)C(C)Oc1cc(-n2c(=O)cc(C(F)(F)F)n(C)c2=O)c(F)cc1Cl (stereo not shown) [Compound 1, 3-[{2-[2-chloro-5-(3,6-dihydro-3-methyl-2,6-dioxo-4-trifluoromethyl-1(2H)-pyrimidinyl)-4-fluorophenoxy]-1-oxopropyl}amino]propionic acid methyl ester]
Echinochloa crus mortality, measured value ([1]; 4 g/ha): 0%
Echinochloa crus mortality, measured value ([1]; 8 g/ha): 5%
Echinochloa crus mortality, measured value ([1]; 16 g/ha): 17%
Digitaria sanguinalis mortality, measured value ([2]; 4 g/ha): 0%
Digitaria sanguinalis mortality, measured value ([2]; 8 g/ha): 5%
Digitaria sanguinalis mortality, measured value ([2]; 16 g/ha): 20%
mortality at 4 g/ha [3, 21]: 17%
mortality at 8 g/ha [3, 21]: 45%
mortality at 16 g/ha [3, 21]: 60%
mortality at 4 g/ha [4, 22]: 18%
mortality at 8 g/ha [4, 22]: 45%
mortality at 16 g/ha [4, 22]: 60%
mortality at 4 g/ha [5, 23]: 11%
mortality at 8 g/ha [5, 23]: 39%
mortality at 16 g/ha [5, 23]: 52%

COc1c(Cl)ccc(Cl)c1C(=O)O [Dicamba]
Data (measured value) Echinochloa crus ([1]; 75 g/ha): 0
Data (measured value) Echinochloa crus ([1]; 150 g/ha): 0
Data (measured value) Echinochloa crus ([1]; 300 g/ha): 0
Data (measured value) Digitaria sanguinalis ([2]; 75 g/ha): 0
Data (measured value) Digitaria sanguinalis ([2]; 150 g/ha): 0
Data (measured value) Digitaria sanguinalis ([2]; 300 g/ha): 0
pest or weed control at 75 g/ha ([3]; read-out: Data (measured value) Abutilon theophrasti, 75 g/ha): 9%
pest or weed control at 150 g/ha ([3]; read-out: Data (measured value) Abutilon theophrasti, 150 g/ha): 20%
pest or weed control at 300 g/ha ([3]; read-out: Data (measured value) Abutilon theophrasti, 300 g/ha): 46%
pest or weed control at 75 g/ha ([4]; read-out: Data (measured value) Aeschynomene indica, 75 g/ha): 7%
pest or weed control at 150 g/ha ([4]; read-out: Data (measured value) Aeschynomene indica, 150 g/ha): 23%
pest or weed control at 300 g/ha ([4]; read-out: Data (measured value) Aeschynomene indica, 300 g/ha): 51%
pest or weed control at 75 g/ha ([5]; read-out: Data (measured value) Xanthium spinosum, 75 g/ha): 13%
pest or weed control at 150 g/ha ([5]; read-out: Data (measured value) Xanthium spinosum, 150 g/ha): 29%
pest or weed control at 300 g/ha ([5]; read-out: Data (measured value) Xanthium spinosum, 300 g/ha): 62%

CC(Oc1ccc(Oc2nc3ccc(Cl)cc3o2)cc1)C(=O)O (stereo not shown) [Fenoxaprop, reference compound]
Echinochloa crus mortality, measured value ([1]; 25 g/ha): 13%
Echinochloa crus mortality, measured value ([1]; 50 g/ha): 31%
Echinochloa crus mortality, measured value ([1]; 100 g/ha): 65%
Digitaria sanguinalis mortality, measured value ([2]; 25 g/ha): 13%
Digitaria sanguinalis mortality, measured value ([2]; 50 g/ha): 32%
Digitaria sanguinalis mortality, measured value ([2]; 100 g/ha): 64%
mortality at 25 g/ha [3, 21]: 0%
mortality at 50 g/ha [3, 21]: 0%
mortality at 100 g/ha [3, 21]: 0%
mortality at 25 g/ha [4, 22]: 0%
mortality at 50 g/ha [4, 22]: 0%
mortality at 100 g/ha [4, 22]: 0%
mortality at 25 g/ha [5, 23]: 0%
mortality at 50 g/ha [5, 23]: 0%
mortality at 100 g/ha [5, 23]: 0%

CC(Oc1ccc(Oc2ccc(C(F)(F)F)cn2)cc1)C(=O)O (stereo not shown) [Fluazifop, reference compound]
Echinochloa crus mortality, measured value ([1]; 50 g/ha): 10%
Echinochloa crus mortality, measured value ([1]; 100 g/ha): 26%
Echinochloa crus mortality, measured value ([1]; 200 g/ha): 61%
Digitaria sanguinalis mortality, measured value ([2]; 50 g/ha): 9%
Digitaria sanguinalis mortality, measured value ([2]; 100 g/ha): 21%
Digitaria sanguinalis mortality, measured value ([2]; 200 g/ha): 52%
mortality at 50 g/ha [3, 21]: 0%
mortality at 100 g/ha [3, 21]: 0%
mortality at 200 g/ha [3, 21]: 0%
mortality at 50 g/ha [4, 22]: 0%
mortality at 100 g/ha [4, 22]: 0%
mortality at 200 g/ha [4, 22]: 0%
mortality at 50 g/ha [5, 23]: 0%
mortality at 100 g/ha [5, 23]: 0%
mortality at 200 g/ha [5, 23]: 0%

Nc1c(Cl)c(F)nc(OCC(=O)O)c1Cl [Fluroxypyr]
Data (measured value) Echinochloa crus ([1]; 50 g/ha): 0
Data (measured value) Echinochloa crus ([1]; 100 g/ha): 0
Data (measured value) Echinochloa crus ([1]; 200 g/ha): 0
Data (measured value) Digitaria sanguinalis ([2]; 50 g/ha): 0
Data (measured value) Digitaria sanguinalis ([2]; 100 g/ha): 0
Data (measured value) Digitaria sanguinalis ([2]; 200 g/ha): 0
pest or weed control at 50 g/ha [3, 12]: 9%
pest or weed control at 100 g/ha [3, 13]: 26%
pest or weed control at 200 g/ha ([3]; read-out: Data (measured value) Abutilon theophrasti, 200 g/ha): 53%
pest or weed control at 50 g/ha [4, 17]: 13%
pest or weed control at 100 g/ha [4, 18]: 27%
pest or weed control at 200 g/ha ([4]; read-out: Data (measured value) Aeschynomene indica, 200 g/ha): 63%
pest or weed control at 50 g/ha [5, 19]: 7%
pest or weed control at 100 g/ha [5, 20]: 23%
pest or weed control at 200 g/ha ([5]; read-out: Data (measured value) Xanthium spinosum, 200 g/ha): 54%

Reference: patent US10206399B2, “Herbicidal composition comprising uracil compound as active ingredient” (Dongbu Farm Hannong Co., Ltd., priority 2012, dated 2019)
